# In PubChem BioAssay (NCI):
#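 Step 1: Grow cells in 96-well plates. Step 2: Expose to compound for 48 hours at 5 concentrations. Step 3: Interpolate endpoints linearly; if unreached, use highest concentration. TGI denotes the concentration required for complete inhibition of growth.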
# Assays:
# Assay in all cases: DTP human tumour cell line panel, 48 h
# [1] = system: SF-295 CNS
# [2] = system: HCC-2998 colon
# [3] = system: ACHN renal
# [4] = system: NCI-H23 lung
# [5] = system: HOP-62 NSCLC
# [6] = system: PC-3 prostate
# [7] = system: DU-145 prostate
# [8] = system: HS 578T breast
# [9] = system: OVCAR-3 ovarian
# [10] = system: RXF 393 renal
# [11] = system: A549 NSCLC
# [12] = system: SF-268 CNS
# [13] = system: EKVX NSCLC
# [14] = system: HCT-15 colon
# [15] = system: HT29 colon
# [16] = system: A498 renal
# [17] = system: KM12 colon
# [18] = system: RPMI-8226 leukemia
SMILES,TGI [1] [µM],TGI [2] [µM],TGI [3] [µM],TGI [4] [µM],TGI [5] [µM],TGI [6] [µM],TGI [7] [µM],TGI [8] [µM],TGI [9] [µM],TGI [10] [µM],TGI [11] [µM],TGI [12] [µM],TGI [13] [µM],TGI [14] [µM],TGI [15] [µM],TGI [16] [µM],TGI [17] [µM],TGI [18] [µM]
O=P1(c2ccccc2)C(c2ccccc2)=CC=C1c1ccccc1,> 100,64.8,> 100,> 100,> 100,62.8,> 100,> 100,89.8,> 100,> 100,> 100,> 100,77.3,50.2,> 100,50.1,19.4
C[N+]1(Cc2ccc(Cl)c(Cl)c2)CCCC1C1CCCN(Cc2ccc(Cl)c(Cl)c2)C1 (centres undefined),> 100,> 100,> 100,> 100,> 100,> 100,> 100,> 100,> 100,> 100,> 100,> 100,> 100,> 100,> 100,> 100,> 100,> 100
CCCCN(Cc1ccccc1)C(=NC#N)N(Cc1ccccc1)Cc1ccccc1,> 66,> 75.7,> 72.3,> 74.5,75.3,32.8,> 100,99.1,28.9,63.8,> 100,> 100,> 100,77.2,85.2,> 100,54,49.8
O=C(Cc1ccc(Cl)cc1)Nc1ccc2oc(-c3ccccc3)nc2c1,> 100,> 100,> 100,> 100,> 100,> 100,> 100,> 100,> 100,> 100,> 100,> 100,> 100,> 100,> 100,> 100,> 100,> 100
C=CCN1C(=O)/C(=C/c2ccc(C)cc2)NC1=S,> 100,> 100,> 100,> 100,> 100,> 100,> 100,> 100,> 100,> 100,> 100,> 100,97.1,> 100,> 100,> 100,> 100,> 100
O=C1CCCC1C(O)(C(F)(F)F)C(F)(F)F (centres undefined),> 100,> 100,> 100,> 100,> 100,> 100,> 100,> 100,> 100,> 100,> 100,> 100,> 100,> 100,> 100,> 100,> 100,> 100
CC1(C)C/C(=N/O)c2c(nc3ccc4ccccc4c3c2-c2ccc(Cl)cc2)C1,22.8,43.8,19.4,46.7,92.2,> 100,40.9,76.2,24.7,39.4,51,30.1,29.7,41.6,33.5,39.6,> 100,> 100
COc1ccc(N2C(=O)C(C)SC2c2cc3cc(Br)ccc3nc2Cl)cc1 (centres undefined),> 100,> 100,> 100,> 100,> 100,> 100,> 100,> 100,> 100,93.6,> 100,> 100,98.5,> 100,> 100,> 100,> 100,> 100
CC1=C(C(=O)N(C(C)C)C(C)C)CC(C(=O)N(C(C)C)C(C)C)=C(C)N1,> 100,> 100,> 100,> 100,> 100,> 100,> 100,> 100,> 100,> 100,> 100,> 100,> 100,> 100,> 100,> 100,> 100,> 100
CC1(c2cccc(Cl)c2)CC(c2cccc(Cl)c2)=C(C#N)C(=C(C#N)C#N)N1 (centres undefined),33.4,30.3,31.9,39,41.3,34.3,29.3,34.1,23,29.3,42.1,20.1,46.5,33.8,91.2,39.3,39,59.4
CCOc1cc2c(cc1O)CC[C@@H]1[C@@H]2CC[C@]2(C)C(N)CC[C@@H]12 (some centres undefined),12.5,5.44,26.2,16.7,40.4,13.7,7.08,23.2,24.7,7.33,16.1,23.8,20.9,13.8,6.4,18.7,8.03,10
Cc1ccc(N2CCC3(CC2)OCCO3)cc1,> 100,> 100,> 100,> 100,> 100,> 100,> 100,> 100,> 100,> 100,> 100,> 100,> 100,> 100,> 100,> 100,> 100,> 100
C[C@]12C[C@@H](c3ccccc3)Nc3ccccc3N1C(c1ccccc1)=NO2,> 100,> 100,> 100,> 100,> 100,> 100,> 100,> 100,> 100,> 100,> 100,> 100,79.3,> 100,> 100,> 100,> 100,49.3
CC(C)=c1sc(=C(C)C)c2c1=NC(C)(C)N=2,> 100,> 100,> 100,> 100,> 100,> 100,> 100,> 100,> 100,> 100,> 100,> 100,> 100,> 100,> 100,> 100,> 100,> 100
Cc1c(F)c(N)c2c(=O)cc(-c3ccc(N)c(F)c3)oc2c1F,43.2,> 100,50.4,68.4,46.8,45.6,> 100,> 95,> 100,41.6,59,76.7,54.7,> 100,98.6,8.74,> 100,> 96.1
Cc1ccc(C(=O)Nc2ccc(CP(=O)(O)O)cc2CP(=O)(O)O)cc1NC(=O)c1cccc(NC(=O)Nc2cccc(C(=O)Nc3cc(C(=O)Nc4ccc(CP(=O)(O)O)cc4CP(=O)(O)O)ccc3C)c2)c1,> 100,> 100,> 100,> 100,> 100,> 100,> 100,> 100,> 100,> 100,> 100,> 100,> 100,> 100,> 100,> 100,> 100,> 100
Cc1ccc(C)n1-c1ccccc1C1C=CN(C(=O)OC(C)(C)C)C=C1,> 100,34,> 100,> 100,> 100,> 100,> 100,> 100,46.8,60.4,> 100,> 100,60.8,45.7,27.7,> 100,31.2,> 100
O=C(NNCc1ccco1)c1cc2ccccc2[nH]1,> 100,> 90.1,> 100,> 100,> 100,> 100,> 100,> 100,> 95,> 100,> 100,> 100,> 100,> 100,> 100,> 100,> 100,> 100
Nc1ccc(CCSSCCc2ccc(N)cc2)cc1,> 100,34.4,> 93.2,> 72.6,> 100,> 78.9,> 87.4,66.4,> 88.4,44.6,> 100,45.2,> 100,> 67.9,49.7,> 94.7,> 100,> 81.8
N#Cc1ccc(C(=O)/C=C/c2ccc(O)c(O)c2)cc1,33.9,28.2,31.8,33,32.4,30,30,> 76.6,29.3,32.4,31.8,31.1,31.8,30.1,31.2,31.9,30.5,25.2
COC(=O)C(Cc1ccc(Oc2cc(CC(NC(=O)c3ccccc3)C(=O)OC)ccc2OC)cc1)NC(=O)c1ccccc1 (centres undefined),> 100,> 100,> 55,> 82.2,> 100,> 85.8,> 50.3,61.8,> 87.3,28.5,> 100,48.9,> 86.9,> 100,> 100,> 100,> 100,> 69.3
Cc1ccc2c(c1)CC1(Cc3c(C)cccc3C1=O)C2=O (centres undefined),> 100,> 100,> 100,> 100,71.9,> 100,> 100,87.4,> 100,> 100,> 100,> 100,> 100,> 100,> 100,> 100,> 100,> 100
CN(N)/N=N/c1nc[nH]c1[N+](=O)[O-],> 100,> 100,> 100,> 100,> 100,> 100,> 100,> 100,> 100,> 100,> 100,> 100,> 100,> 100,> 100,> 100,> 100,57.3
